Reference: publication PMC10931833, “Simultaneous Purification of Human Interferon Alpha-2b and Serum Albumin Using Bioprivileged Fluorinated Ionic Liquid-Based Aqueous Biphasic Systems” (International Journal of Molecular Sciences, 2024)

Key:
BSA = biological target: T1, BSA (Bos taurus, UniProt P02769); test: DSC thermal unfolding of BSA in water and aqueous solutions of ABS phase-forming components; assay type: physicochemical, bovine; settings: for Tm / ΔG / ΔHcal / ΔHcal/ΔHvH / ΔHvH / ΔS: 1.0 mg/mL BSA
T1 construct: purchased Millipore Sigma-Aldrich
T1 sequence (P02769 25-607): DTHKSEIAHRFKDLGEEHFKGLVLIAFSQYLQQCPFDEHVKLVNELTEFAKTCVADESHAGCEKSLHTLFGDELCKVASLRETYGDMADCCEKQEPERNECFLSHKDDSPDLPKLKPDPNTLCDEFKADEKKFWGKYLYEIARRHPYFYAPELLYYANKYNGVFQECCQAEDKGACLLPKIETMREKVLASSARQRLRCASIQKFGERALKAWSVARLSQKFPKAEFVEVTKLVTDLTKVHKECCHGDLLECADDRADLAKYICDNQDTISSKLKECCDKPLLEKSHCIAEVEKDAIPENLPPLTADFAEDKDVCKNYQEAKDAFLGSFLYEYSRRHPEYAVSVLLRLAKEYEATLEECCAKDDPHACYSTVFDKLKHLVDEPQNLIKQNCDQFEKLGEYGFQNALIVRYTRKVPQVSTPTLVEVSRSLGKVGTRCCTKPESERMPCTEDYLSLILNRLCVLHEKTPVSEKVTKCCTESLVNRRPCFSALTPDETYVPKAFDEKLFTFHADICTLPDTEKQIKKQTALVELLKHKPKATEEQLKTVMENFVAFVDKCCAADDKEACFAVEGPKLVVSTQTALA
Procedure: Differential scanning calorimetry (DSC) measurements were performed with Nano DSC equipment, as detailed in Section 3, and used to determine the melting temperature (T m ) and enthalpy ( Δ H) of protein unfolding. DSC analyzes changes in the structure and stability of proteins as thermal transitions at the nanoscale. Using DSC to measure heat capacity as a function of the temperature of a well-studied protein such as BSA provides keen insights into folding and unfolding processes, as well as factors affecting stability. Due to the volume and concentration requirements of the DSC technique, and the constraints in available quantities of IFN- α 2b the DSC experiments on the ABS phase-forming components’ effect on the structural properties of proteins were attained only for BSA.
The T m of BSA, which corresponds to the thermal unfolding transition midpoint, was measured in the absence and presence of the ABS phase-forming components at increasing concentrations (see Figure 1 and Table 2).

IFN-α2b [1] = biological target: T2, IFN-α2b (Homo sapiens, UniProt P01563); test: Far-UV CD secondary structure of IFN-α2b (CONTIN-LL deconvolution); assay type: physicochemical; settings: 0.125 mg/mL IFN-α2b, 200 mM component, 25 °C
T2 construct: single non-glycosylated polypeptide chain with a molecular weight of 19 kDa, comprising 165 amino acids; purchased Millipore Sigma-Aldrich SRP4595-100UG; host or cells: E. coli
T2 sequence (P01563 24-188): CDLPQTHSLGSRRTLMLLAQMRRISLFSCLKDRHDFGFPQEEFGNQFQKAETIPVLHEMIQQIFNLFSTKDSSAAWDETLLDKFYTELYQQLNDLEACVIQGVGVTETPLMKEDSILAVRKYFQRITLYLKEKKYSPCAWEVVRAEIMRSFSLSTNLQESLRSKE
Excerpt: Circular dichroism (CD) is widely used to study the secondary structures of proteins, peptides and nucleic acids, because it requires a low concentration sample, is a nondestructive method, allows studying a wide range of variables (temperature, pH, etc.), and provides information on the effect of added ligands on protein folding and interactions.
Circular dichroism (CD) spectra were collected in a 10 mm quartz cuvette and a Chirascan spectropolarimeter (Applied Photophysics, UK) at room temperature. All CD spectra were recorded in the far-UV range of 190 to 260 nm at scan rates of 50 nm/min, with 4 accumulations, and a response time of 3 s; CD spectra were collected. For each CD experiment, two distinct duplicates were acquired and combined. […] Spectral deconvolution was carried out with DichroWeb using the CONTIN-LL deconvolution algorithm with the SMP180 reference set.

IFN-α2b [2] = biological target: T2, IFN-α2b; test: CD thermal unfolding (Tm) of IFN-α2b; assay type: physicochemical; settings: 0.125 mg/ml IFN-α2b, 200 mM component aqueous solution
Procedure: The same analyses attained for 208 nm and 192 nm are illustrated in Figures S5 and S6 in the Supplementary Materials. The corresponding T m values are estimated by fitting to a sigmoid with four parameters (one-way ANOVA, significance level of 0.05) and summarized in Table S2 in the Supplementary Materials. The CD T m of 0.125 mg/mL native IFN- α 2b is in good agreement with what was previously reported. […] The estimated T m values are summarized in Table S2 in the Supplementary Materials. The same analysis is attained for 208 nm and 192 nm, as depicted in Figures S5 and S6 in the Supplementary Materials. All the CD T m results are summarized in Table S2 in the Supplementary Materials. The thermal stability assessed by far-UV CD is solely determined through the thermal decay of the alpha-helical structure.
The same analysis was attained for 208 nm and 192 nm as illustrated in Figure S13 in the Supplementary Materials. The corresponding T m values are depicted in Table 5, and were estimated by fitting a sigmoid with four parameters (one-way ANOVA, with a significance level of 0.05).

[3] = parameters: method as in earlier work; settings: aqueous solution at 25 °C, ref 3 (supplement; main text ref 71), cited from earlier work
[4] = ITC ([C2C1Im][C4F9SO3]) or conductometry ([N1112(OH)][C4F9SO3])

## CCn1cc[n+](C)c1.O=S(=O)([O-])C(F)(F)C(F)(F)C(F)(F)C(F)(F)F [1-ethyl-3-methylimidazolium perfluorobutane sulfonate]
BSA; 0.1 mM component
  Tm: 75.55 °C
  ΔG: 17.28 kcal/mol
  ΔHcal: 120.2 kcal/mol
  ΔHcal/ΔHvH: 1.028
  ΔHvH: 117 kcal/mol
  ΔS: 1.445 KJ/(mol.K)
BSA; 1 mM component
  Tm: 75.62 °C
  ΔG: 20.41 kcal/mol
  ΔHcal: 141.5 kcal/mol
  ΔHcal/ΔHvH: 1.050
  ΔHvH: 134.8 kcal/mol
  ΔS: 1.700 KJ/(mol.K)
BSA; 5 mM component
  Tm: 80.59 °C
  ΔG: 30.02 kcal/mol
  ΔHcal: 190.7 kcal/mol
  ΔHcal/ΔHvH: 0.967
  ΔHvH: 197.2 kcal/mol
  ΔS: 2.255 KJ/(mol.K)
BSA; 10 mM component
  Tm: 80.94 °C
  ΔG: 29.09 kcal/mol
  ΔHcal: 183.6 kcal/mol
  ΔHcal/ΔHvH: 1.061
  ΔHvH: 173.1 kcal/mol
  ΔS: 2.168 KJ/(mol.K)
BSA; 25 mM component
  Tm: 82.57 °C
  ΔG: 32.53 kcal/mol
  ΔHcal: 200.3 kcal/mol
  ΔHcal/ΔHvH: 0.972
  ΔHvH: 205.9 kcal/mol
  ΔS: 2.354 KJ/(mol.K)
BSA; 55 mM component
  Tm: 84.28 °C
  ΔG: 39.89 kcal/mol
  ΔHcal: 239.24 kcal/mol
  ΔHcal/ΔHvH: 1.105
  ΔHvH: 216.5 kcal/mol
  ΔS: 2.798 KJ/(mol.K)
BSA; 120 mM component
  Tm: 86.15 °C
  ΔG: 33.99 kcal/mol
  ΔHcal: 198.6 kcal/mol
  ΔHcal/ΔHvH: 1.051
  ΔHvH: 189 kcal/mol
  ΔS: 2.310 KJ/(mol.K)
BSA; FIL at the highest concentration (120 mM) vs water
  increase of BSA Tm (DSC): approximately 11 °C
IFN-α2b [1]
  Distorted Alpha Helix: 0.153
  Distorted Beta Sheet: 0.069
  Regular Alpha Helix: 0.292
  Regular Beta Sheet: 0.05
  Turns: 0.204
  Unordered: 0.232
IFN-α2b [2]
  Tm, Ellipticity 192 nm: 53.633 °C
[3]; [4]
  1st CAC: 14.40 mM
  2nd CAC: 34.48 mM
  3rd CAC: 76.54 mM
[3]; ITC
  4th CAC: 106.09 mM
